Assay [1] relates to MCF7. The assay can be described thus: Antiproliferative activity against human MCF7 cells assessed as reduction in cell viability incubated for 24 hrs by soft agar assay. The class given is functional, cell-based. The conditions noted are these: MCF7, 24 h.
Assay [2] deals with MDA-MB-231. The assay can be described thus: Antiproliferative activity against human MDA-MB-231 cells assessed as reduction in cell viability incubated for 24 hrs by soft agar assay. The class given is functional, cell-based. The settings on record: MDA-MB-231, 24 h.
For assay [3], the target named is T1, Amine oxidase [flavin-containing] A (Homo sapiens, UniProt P21397).
T1 sequence (P21397 whole entry): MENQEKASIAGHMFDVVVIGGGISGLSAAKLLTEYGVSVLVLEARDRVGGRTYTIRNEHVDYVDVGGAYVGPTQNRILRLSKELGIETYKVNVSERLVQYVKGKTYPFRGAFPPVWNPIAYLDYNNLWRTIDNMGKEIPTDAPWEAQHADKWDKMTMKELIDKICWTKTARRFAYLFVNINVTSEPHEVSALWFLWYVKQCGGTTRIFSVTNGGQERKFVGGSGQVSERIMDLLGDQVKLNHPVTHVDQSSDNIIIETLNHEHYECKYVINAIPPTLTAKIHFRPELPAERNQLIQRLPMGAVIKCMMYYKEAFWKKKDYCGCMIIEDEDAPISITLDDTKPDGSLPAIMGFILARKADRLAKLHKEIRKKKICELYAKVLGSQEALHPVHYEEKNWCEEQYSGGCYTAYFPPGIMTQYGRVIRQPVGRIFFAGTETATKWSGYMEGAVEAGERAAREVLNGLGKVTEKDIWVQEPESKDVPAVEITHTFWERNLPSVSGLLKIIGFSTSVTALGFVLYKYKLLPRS
Put plainly: Inhibition of recombinant human MAO-A assessed as inhibition of 4-hydroxyquinoline formation using kynuramine as substrate incubated for 20 mins by fluorescence assay.

The species entered for assay [4] is Homo sapiens. Put plainly: Selectivity index, ratio of IC50 for inhibition of recombinant human MAO-A to IC50 for inhibition of recombinant human MAO-B.
The target of assay [5] is T2, Amine oxidase [flavin-containing] B (Homo sapiens, UniProt P27338).
T2 sequence (P27338 whole entry): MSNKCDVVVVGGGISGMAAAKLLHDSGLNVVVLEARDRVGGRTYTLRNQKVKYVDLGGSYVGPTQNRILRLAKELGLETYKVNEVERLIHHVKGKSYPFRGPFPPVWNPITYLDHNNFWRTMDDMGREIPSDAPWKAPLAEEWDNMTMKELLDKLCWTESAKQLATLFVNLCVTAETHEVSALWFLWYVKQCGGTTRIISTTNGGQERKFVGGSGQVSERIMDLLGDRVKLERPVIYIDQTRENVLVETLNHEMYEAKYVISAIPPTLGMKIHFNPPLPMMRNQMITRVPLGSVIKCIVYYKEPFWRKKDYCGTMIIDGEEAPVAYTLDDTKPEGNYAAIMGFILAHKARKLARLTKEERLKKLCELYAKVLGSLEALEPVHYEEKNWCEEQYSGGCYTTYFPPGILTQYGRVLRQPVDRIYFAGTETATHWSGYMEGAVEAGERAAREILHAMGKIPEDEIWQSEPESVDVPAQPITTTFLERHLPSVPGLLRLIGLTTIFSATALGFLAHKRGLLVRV
The assay can be described thus: Inhibition of recombinant human MAO-B assessed as inhibition of 4-hydroxyquinoline formation using kynuramine as substrate incubated for 20 mins by fluorescence assay.

Assay [6] in a line: Selectivity ratio of IC50 for antiproliferative activity against human MES-SA cells to IC50 for antiproliferative activity against doxorubicin resistant human MES-SA/Dx5 cells. The class given is functional.
Assay [7] concerns MES-SA/Dx5. The assay can be described thus: Antiproliferative activity against multi drug resistant human MES-SA/Dx5 cells assessed as inhibition of cell proliferation incubated for 72 hrs by MTT assay. It counts as functional, cell-based. The settings on record: MES-SA/Dx5, 72 h.
Assay [8] in a line: Antiproliferative activity against multidrug resistant human MV522/MDR1 cells assessed as inhibition of cell proliferation incubated for 72 hrs by MTT assay. It counts as functional, cell-based. The conditions noted are these: MV522/MDR1, 72 h. In general terms: Formazan colour is commonly taken as a measure of viable cells.
In assay [9] the test system is NCI/ADR-RES. The assay can be described thus: Antiproliferative activity against multi drug resistant human NCI-ADR-RES cells assessed as inhibition of cell proliferation incubated for 72 hrs by MTT assay. It counts as functional, cell-based.
Assay [10] has as its system HL60/ADR. Put plainly: Antiproliferative activity against drug resistant human HL60/ADR cells assessed as inhibition of cell proliferation incubated for 72 hrs by MTT assay. The class given is functional, cell-based.
Assay [11] can be described thus: Antiproliferative activity against doxorubicin resistant human MDA-MB-231-Dox cells assessed as inhibition of cell proliferation incubated for 72 hrs by MTT assay. It counts as functional, cell-based.
In assay [12] the target is Tubulin (Bos taurus, UniProt Q6B856+Q862L2+Q862F3). The assay can be described thus: Inhibition of bovine brain tubulin polymerization preincubated for 30 mins followed by GTP addition and measured after 20 mins by spectrophotometric analysis.
Assay [13] relates to KB 3-1. The assay can be described thus: Antiproliferative activity against multidrug resistant human KB-3-1 cells assessed as inhibition of cell proliferation incubated for 72 hrs by MTT assay. It counts as functional, cell-based. The settings on record: KB 3-1, 72 h.
A short description of assay [14]: Antiproliferative activity against multidrug resistant human CEM/VLB100 cells assessed as inhibition of cell proliferation incubated for 72 hrs by MTT assay. The class given is functional, cell-based. The settings on record: CEM/VLB100, 72 h.
The target in assay [15] is Amyloid-beta precursor protein (Homo sapiens, UniProt P05067). The assay can be described thus: Binding affinity to human brain homogenate amyloid beta by radioligand competition binding assay. It counts as tissue-based. (In general: Displacement assays read how much labelled ligand stays bound in the presence of the test substance.)
Assay [16] addresses Glycogen synthase kinase-3 beta (Homo sapiens, UniProt P49841). The assay can be described thus: Inhibition of recombinant GSK-3beta (unknown origin) using GS peptide as substrate in presence of ATP incubated for 1 hrs by ADP-Glo kinase assay. In general terms: ADP-Glo first removes unused ATP, then detects ADP through luciferase.
Assay [17] has as its target Serine/threonine-protein kinase pim-1 (Homo sapiens, UniProt P11309). The assay can be described thus: Inhibition of PIM1 (unknown origin) using poly-Glu-Tyr (4:1) as substrate in presence of [gamma-33P-ATP] incubated for 2 hrs by radiometric kinase assay.
Assay [18] addresses T3, Tyrosinase (Agaricus bisporus, UniProt O42713).
T3 sequence (O42713 whole entry): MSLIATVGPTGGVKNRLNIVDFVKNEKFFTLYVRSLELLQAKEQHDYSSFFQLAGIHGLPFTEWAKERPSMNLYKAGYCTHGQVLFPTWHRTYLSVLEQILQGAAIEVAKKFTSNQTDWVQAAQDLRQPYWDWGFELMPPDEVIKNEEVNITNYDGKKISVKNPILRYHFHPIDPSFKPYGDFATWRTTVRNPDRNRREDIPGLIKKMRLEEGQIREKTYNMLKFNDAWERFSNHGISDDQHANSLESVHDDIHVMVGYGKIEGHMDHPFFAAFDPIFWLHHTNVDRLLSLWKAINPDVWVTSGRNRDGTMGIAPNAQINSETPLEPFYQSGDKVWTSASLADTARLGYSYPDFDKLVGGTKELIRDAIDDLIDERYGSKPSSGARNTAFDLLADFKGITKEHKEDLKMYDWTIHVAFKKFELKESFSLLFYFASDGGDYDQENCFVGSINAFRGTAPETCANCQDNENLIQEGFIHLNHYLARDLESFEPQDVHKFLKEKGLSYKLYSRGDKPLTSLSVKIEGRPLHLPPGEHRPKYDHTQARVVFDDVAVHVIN
The assay can be described thus: Inhibition of mushroom tyrosinase using L-DOPA as substrate incubated for 30 mins by spectrophotometric analysis.

For assay [19], the system named is Human immunodeficiency virus 1. The assay can be described thus: Antiviral activity against HIV-1 infected in human C8166 cells assessed as reduction in virus-induced cytopathic effect by MTT assay. The class given is functional, organism-based. The conditions noted are these: Human immunodeficiency virus 1, C8166.
Assay [20] concerns A549. The assay can be described thus: Antiproliferative activity against human A549 cells assessed as reduction in cell viability incubated for 48 hrs by sulforhodamine assay. The class given is functional, cell-based. The conditions noted are these: A549, 48 h.
Assay [21] concerns HCT-116. Put plainly: Antiproliferative activity against human HCT-116 cells assessed as reduction in cell viability incubated for 48 hrs by sulforhodamine assay. It counts as functional, cell-based. The conditions noted are these: HCT-116, 48 h.
For assay [22], the system named is MCF7. The assay can be described thus: Antiproliferative activity against human MCF7 cells assessed as reduction in cell viability incubated for 48 hrs by sulforhodamine assay. The class given is functional, cell-based. The settings on record: MCF7, 48 h.
Assay [23] concerns THP-1. The assay can be described thus: Antiproliferative activity against human THP-1 cells assessed as reduction in cell viability incubated for 48 hrs by sulforhodamine assay. The class given is functional, cell-based. The settings on record: THP-1, 48 h.
Assay [24] deals with T47D. The assay can be described thus: Antiproliferative activity against human T47D cells assessed as reduction in cell viability incubated for 48 hrs by sulforhodamine assay. The class given is functional, cell-based.
Assay [25] has as its target Tubulin (Sus scrofa, UniProt P02554+P02550). Put plainly: Inhibition of porcine brain tubulin polymerization preincubated for 1 mins followed by GTP addition and measured for 60 mins at 1 min interval by fluorescence assay.

Chain of Serine/threonine-protein kinase pim-1 (P11309 whole entry): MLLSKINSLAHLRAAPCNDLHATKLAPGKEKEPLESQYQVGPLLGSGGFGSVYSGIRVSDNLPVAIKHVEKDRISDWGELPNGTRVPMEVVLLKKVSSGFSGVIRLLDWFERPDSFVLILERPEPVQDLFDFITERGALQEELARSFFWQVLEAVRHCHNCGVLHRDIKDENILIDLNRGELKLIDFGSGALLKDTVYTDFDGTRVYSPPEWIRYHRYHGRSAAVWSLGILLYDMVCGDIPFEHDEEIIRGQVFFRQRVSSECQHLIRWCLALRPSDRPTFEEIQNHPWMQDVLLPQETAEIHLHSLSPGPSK
Chain of Glycogen synthase kinase-3 beta (P49841 whole entry): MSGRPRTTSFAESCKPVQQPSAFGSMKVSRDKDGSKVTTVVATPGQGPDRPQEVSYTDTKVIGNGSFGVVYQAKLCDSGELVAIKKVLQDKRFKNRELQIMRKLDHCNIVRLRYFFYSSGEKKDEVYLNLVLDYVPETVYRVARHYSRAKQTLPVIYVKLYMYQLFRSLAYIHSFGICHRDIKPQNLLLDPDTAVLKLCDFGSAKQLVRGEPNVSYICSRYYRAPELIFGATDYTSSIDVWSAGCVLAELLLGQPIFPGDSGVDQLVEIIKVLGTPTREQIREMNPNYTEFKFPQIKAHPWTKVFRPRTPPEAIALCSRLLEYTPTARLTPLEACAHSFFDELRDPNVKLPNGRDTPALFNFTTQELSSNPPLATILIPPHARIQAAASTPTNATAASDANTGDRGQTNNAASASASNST
Chain of Amyloid-beta precursor protein (P05067 whole entry): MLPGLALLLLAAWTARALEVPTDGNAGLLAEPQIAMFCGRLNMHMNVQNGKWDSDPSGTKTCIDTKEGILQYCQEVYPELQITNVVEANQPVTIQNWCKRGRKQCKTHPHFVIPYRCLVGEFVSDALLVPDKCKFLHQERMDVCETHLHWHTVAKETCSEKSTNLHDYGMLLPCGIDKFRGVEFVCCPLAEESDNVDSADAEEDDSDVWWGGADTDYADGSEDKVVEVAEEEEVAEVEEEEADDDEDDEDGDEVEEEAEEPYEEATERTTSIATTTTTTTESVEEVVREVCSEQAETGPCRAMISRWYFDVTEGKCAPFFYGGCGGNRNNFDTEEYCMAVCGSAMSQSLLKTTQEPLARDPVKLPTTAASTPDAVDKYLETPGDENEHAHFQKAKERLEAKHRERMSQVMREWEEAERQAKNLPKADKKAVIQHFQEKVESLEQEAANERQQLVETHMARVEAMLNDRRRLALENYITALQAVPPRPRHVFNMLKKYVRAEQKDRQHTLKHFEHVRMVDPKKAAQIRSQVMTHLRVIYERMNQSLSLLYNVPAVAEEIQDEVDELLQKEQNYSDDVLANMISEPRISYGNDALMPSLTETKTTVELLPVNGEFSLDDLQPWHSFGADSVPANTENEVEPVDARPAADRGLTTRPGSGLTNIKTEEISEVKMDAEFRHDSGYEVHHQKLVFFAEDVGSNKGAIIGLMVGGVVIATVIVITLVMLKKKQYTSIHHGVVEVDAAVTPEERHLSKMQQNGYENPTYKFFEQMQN

Usually IC50 stands for the midpoint of a concentration-inhibition curve. Regarding `COc1cc(C2/C(=C/c3ccc(F)cc3)C(=O)c3cc(OC)c(OC)c(OC)c32)cc(OC)c1OC` (configuration not stated), the IC50 in assay [1] and in assay [2] was 27000 nM in each case.
Consider `COc1ccc2c(c1)O/C(=C\n1ccc3ccccc31)C2=O`, for which the IC50 in assay [3] is over 100000 nM; in assay [5], 2.6 nM. Further, the Ratio IC50 in assay [4] is over 38000.
In the case of `COc1ccc2c(c1)C/C(=C\c1ccc(Br)o1)C2=O`, the values for the IC50 in assay [3] and in assay [5] were 180 nM and 40 nM, respectively.
Take `CCCCc1ccc(/C=C2\Nc3cc(OC)cc(OC)c3C2=O)cc1`: in assay [6], the “Ratio IC50” value is 4.8.
On to `COc1cc2c(c(N)c1OC)C(=O)/C(=C/c1cc(C)c(O)c(C)c1)C2`, for which the 50% inhibitory concentration (IC50) in assay [7] was 2 nM; in assay [8], 2 nM; in [9], 2 nM; in assay [10], 2 nM; in assay [11], 2 nM; in assay [12], 1700 nM. Moreover, the IC50 in assay [13] and in assay [14] was 2 nM in each case.
Broadly, the Ki is the dissociation constant of the complex between target and ligand, obtained from inhibition or displacement. With `CN(C)c1ccc(/C=C2\Cc3cc(I)ccc3C2=O)cc1`, in assay [15], the Ki is 100 nM.
As to `O=C1/C(=C/c2c[nH]c3ncccc23)Oc2cc(OCc3cccc(F)c3)ccc21`, the IC50 in assay [16] was found to be 450 nM.
Take `O=C1/C(=C/c2cc(-c3ccncc3)[nH]n2)Oc2cc(O)cc(O)c21`: the IC50 in [17] came to 18000 nM.
In the case of `O=C1/C(=C/c2ccc(O)cc2O)Cc2ccccc21`, half-maximal inhibition in assay [18] (IC50) was put at 34 nM.
What is called EC50 is the concentration needed to bring the measured effect to its halfway point. Turning to `O=C1/C(=C/c2ccc(O)c(O)c2)Oc2c1ccc(O)c2O`, the concentration for a half-maximal effect (EC50) in assay [19] turned out to be 12000 nM.
On to `COc1cc(C2/C(=C/c3ccc([N+](=O)[O-])cc3)C(=O)c3cc(OC)c(OC)c(OC)c32)cc(OC)c1OC` (configuration not stated), for which the 50% inhibitory concentration (IC50) in assay [20] is 4000 nM; in assay [21], 4000 nM; in assay [22] it was 4000 nM; in assay [23], 4000 nM; in assay [24], 4000 nM; in assay [25], 1500 nM.

Values taken from ChEMBL document CHEMBL5236572, “Bioactive Aurones, Indanones, and Other Hemiindigoid Scaffolds: Medicinal Chemistry and Photopharmacology Perspectives” (J Med Chem, 2022).
